Data on 17 molecules can be found in patent US6500835B2, “Preventive or therapeutic drugs for fibrosis containing chymase inhibitors as the active ingredient” (Suntory Limited, priority 2000, dated 2002).

As a reminder, the IC50 is the concentration at which inhibition is half-maximal.

In test [1] the target is T1, Human heart chymase (Homo sapiens, UniProt P23946).
T1 construct: Human heart chymase was purified according to the method of Urata et al; from tissue; host or cells: human heart
T1 sequence (P23946 22-247): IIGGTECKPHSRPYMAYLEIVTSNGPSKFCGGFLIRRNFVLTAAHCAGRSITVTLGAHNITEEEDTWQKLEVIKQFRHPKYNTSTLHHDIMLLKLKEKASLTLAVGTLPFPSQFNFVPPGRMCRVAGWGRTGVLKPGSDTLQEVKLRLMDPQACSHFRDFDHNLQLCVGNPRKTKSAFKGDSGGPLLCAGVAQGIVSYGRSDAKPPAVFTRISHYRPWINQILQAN
Put plainly: Measurement of chymase inhibitory activity (Suc-Ala-Ala-Pro-Phe-MCA substrate). In kind it is biochemical. Particulars: 30° C., 10 min preincubation. Here is the method:
Human heart chymase was purified according to the method of Urata et al. (J. Biol. Chem., 1990, 265, 22348). The inhibitory activity off the compound of the present invention was determined as follows. Purified enzyme was diluted with 0.1M tris HCl buffer (pH=7.5), 1M sodium chloride, and 0.01% Triton X-100 to obtain an enzyme solution having appropriate concentrations. Suc-Ala-Ala-Pro-Phe-MCA (Peptide Institute Inc.) was dissolved in 10 mM dimethyl sulfoxide (hereinafter referred to as DMSO) and diluted 20-fold with 0.1 M Tris-HCl buffer (pH 7.5) containing 1 M sodium chloride and 0.01% Triton X-100 to an appropriate concentration to prepare substrate solution.
5 μl of the test sample in DMSO was added to 75 μl of the enzyme solution and preincubated at 30° C. for 10 minutes. Then, 20 μl of the subs rate solution was added to the test sample-enzyme mixture, and incubated at 30° C. Ten minutes later, 50 μl of 30% acetic acid was added to stop the enzymatic reaction, and the amount of AMC formed was determined using a fluorophotometer. At the same time, 5 μl of DMSO in stead of the test sample was added and reacted simultaneously as a control. The inhibitory activity to human chymase was calculated based on the value of the control, and then the inhibition percentage and the 50% inhibition concentration (IC50) were determined.

The subject of test [2] is chymase. As to the kind of experiment: Effects of chymase inhibitor on chymase activity in tissues of mice after intraperitoneal administration. The class given is in vivo. The note with it: ICR mice, 12 and 24 hours after administration. As for the experimental part:
(§1) A chymase inhibitor (Compound 18) was administered intraperitoneally in ICR mice (8 weeks old, n=3). After 12 hours and 24 hours, the chymase was extracted from the small intestines, tongues, back skins, front legs, and rear legs of the mice and the enzymatic activity thereof was determined. The chymase was extracted using a 10 mM phosphate buffer including 2M KCl and 0.1% polyethylene octylphenyl ether (Triton X-100) from the tissues. Chymase activity was determined, by measuring the rate of hydrolysis of synthesized substrate Suc-Phe-Pro-Phe-p-nitroanilide. Saline was administered in 24 hours in control groups.

Test [3] has as its system Tsk mice. As to the kind of experiment: Tsk mice, model for scleroderma: thickness of subcutaneous fibrous layer. In kind it is in vivo. The note with it: 50 mg/kg/day i.p. once a day for 2 weeks, 13-week old Tsk mice. As for the experimental part:
(§2) Collagen content, thickness of subcutaneous fibrous layer, mast cell number, chymase activity and chymase mRNA were measured in the skin of Tsk mice (Rheum. Dis. Clin. North Am. 16, 153, 1990), and compared with the control mice (pallid mice) at the ages of 5, 10, and 20 weeks (n=6). The collagen content was determined by measuring hydroxyproline, the marker for collagen, using HPLC, whereas fibrous layer thickness was determined by histological analysis with Azan staining followed by measuring the area of the fibrous layer using an image analysis system. The density of mast cells was calculated by counting the number of cells with stained granules by toluidine blue staining. Chymase was extracted from the skin according to the method described previously (Arch. Dermatol. Res. 290, 553, 1998), and the activity determined as described in Example 2. The mRNA for the skin chymase (MMCP-4) was measured only at 10 weeks of age by competitive RT-PCR method (Biotechniques 21, 268, 1996).
13-week old Tsk mice (n=5) were intra peritoneally administered a chymase inhibitor (Compound 18) in a dosage of 50 mg/kg/day once a day every day for 2 weeks. Five hours after the final administration, the degree of hypertrophy of the subcutaneous fibrous layer and the skin-chymase activity were measured and compared with the values of the group administered saline. […]

Test [4] concerns the target T2, skin chymase (Mus musculus, UniProt P21812).
T2 construct: Chymase was extracted from the skin according to the method described previously; from tissue; host or cells: skin of Tsk mice
T2 sequence (P21812 21-246): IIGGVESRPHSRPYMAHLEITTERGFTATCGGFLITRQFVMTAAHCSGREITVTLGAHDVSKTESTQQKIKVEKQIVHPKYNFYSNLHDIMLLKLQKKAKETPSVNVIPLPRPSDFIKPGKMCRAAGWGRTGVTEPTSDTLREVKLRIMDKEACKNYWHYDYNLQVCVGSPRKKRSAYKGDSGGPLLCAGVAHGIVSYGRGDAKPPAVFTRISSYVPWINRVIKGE
Put plainly: Tsk mice, model for scleroderma: skin chymase activity. In kind it is in vivo. The note with it: 50 mg/kg/day i.p. once a day for 2 weeks, 13-week old Tsk mice, 5 hours after final administration. Here is the method: as §1
as §2, with “Chymase was extracted from the skin according to the method described previously (Arch. Dermatol. Res. 290, 553, 1998), and the activity determined as described in Example 2. The mRNA for the skin chymase (MMCP-4) was measured only at 10 weeks of age by competitive RT-PCR method (Biotechniques 21, 268, 1996).” left out

For test [5], the system named is bleomycin-induced pulmonary fibrosis in mice. Put plainly: Bleomycin-induced pulmonary fibrosis model: effect of chymase inhibitor on lung hydroxyproline. The class given is in vivo, ICR mice. The note with it: five days a week over 2 weeks, bleomycin 0.08 mg. As for the experimental part:
(§3) Pulmonary fibrosis was induced by intratracheal administration of bleomycin (Nippon Kayaku) to 10 week old male ICR mice (Charles River Japan) under anesthesia (n=10). That is, bleomycin (0.04 mg or 0.08 mg) was suspended in 50 μl of saline and administered into the airways using a 100 μl syringe (made by Hamilton Co.) Two weeks after the administration of bleomycin, the lungs were excised and the amount of hydroxyproline, an indicator of tissue collagen, was assayed according to the method as described previously (Anal. Biochem. 19, 249, 1967). Further, the amount of hydroxyproline was expressed as an amount per lung. Further, mice similarly administered saline instead of bleomycin were used as a control (n=10).
Pulmonary fibrosis was induced in accordance with the method described in Example 5 (n=10) and the amount of hydroxyproline in pulmonary tissue was assayed in the same way as in Example 5 in order to investigate the effect of a chymase inhibitor (Compound 34) on pulmonary fibrosis. Further, the chymase inhibitor was suspended in saline containing 0.5% hydroxypropyl cellulose (HPC/saline) and administered intraperitoneally at a dose of 10 mg/kg or 50 mg/kg once a day for five days a week over 2 weeks, starting immediately after the bleomycin administration. […]

The subject of test [6] is pulmonary chymase. As to the kind of experiment: Change in pulmonary chymase activity after intratracheal bleomycin. In kind it is in vivo, mice. The note with it: bleomycin 0.08 mg intratracheal, 2 weeks after administration.
Test [7] deals with ICR mice. Put plainly: Change in hydroxyproline content in lung after intratracheal bleomycin. The class given is in vivo. The note with it: 2 weeks after administration. Here is the method: as §3

Where a name gives a salt, the structure may show the parent alone.

On to `O=C(O)C1Oc2ccc(S(=O)(=O)n3c(=O)[nH]c4cc(Cl)ccc4c3=O)cc2NC1=O` (racemic) [Compound 29, (±)-6-[(7-chloro-2,4(1H,3H)-quinazolinedion-3-yl)sulfonyl]-3-oxo-1,4-benzoxazine-2-carboxylic acid], for which, in test [1], half-maximal inhibition (IC50) required 1700 nM.
The same measure, in the same setting: then `O=c1[nH]c2cc(Cl)ccc2c(=O)n1S(=O)(=O)c1cccc(O)c1` [Compound 1, 7-chloro-3-(3-hydroxybenzenesulfonyl)-2,4(1H,3H)-quinazolinedione], with 360 nM; and `Nc1ccccc1S(=O)(=O)n1c(=O)[nH]c2cc(Cl)ccc2c1=O` [Compound 2, 3-(2-aminobenzenesulfonyl)-7-chloro-2.4(1H,3H)-quinazolinedione], with 140 nM; and `Nc1cc(S(=O)(=O)n2c(=O)[nH]c3cc(Cl)ccc3c2=O)ccc1Cl` [Compound 8, 3-(3-amino-4-chlorobenzenesulfonyl)-7-chloro-2,4(1H,3H)-quinazolinedione], with 35 nM.
`Cc1ccc(S(=O)(=O)n2c(=O)[nH]c3cc(Cl)ccc3c2=O)cc1N` [Compound 10, 3-(3-amino-4-methylbenzenesulfonyl)-7-chloro-2,4(1H,3H)-quinazolinedione] registered an IC50 in test [1] of 170 nM.
On the same count and under the same terms, the result for `Nc1cccc(S(=O)(=O)n2c(=O)[nH]c3cc(Cl)ccc3c2=O)c1` [Compound 12, 3-(3-aminobenzenesulfonyl)-7-chloro-2,4(1H,3H)-quinazolinedione] reads 440 nM; that for `CC(C(=O)O)C(=O)Nc1cccc(S(=O)(=O)n2c(=O)[nH]c3cc(Cl)ccc3c2=O)c1` (stereo not shown) [Compound 13, 2-{3-[(7-chloro-2,4(1H,3H)-quinazolinedion-3-yl)sulfonyl]phenylaminocarbonyl}propionic acid], 300 nM.
The same measure, in the same setting: the result for `O=C(O)c1ccc(S(=O)(=O)n2c(=O)[nH]c3cc(Cl)ccc3c2=O)cc1O` [Compound 16, 4-[(7-chloro-2,4(1H,3H)-quinazolinedion-3-yl)sulfonyl]salicylic acid monosodium salt] reads 840 nM.
In test [1], `Nc1cc(S(=O)(=O)n2c(=O)[nH]c3cc(Cl)ccc3c2=O)ccc1C(=O)O` [Compound 17, 4-[(7-chloro-2,4(1H,3H)-quinazolinedion-3-yl)sulfonyl]anthranilic acid] showed an IC50 of 140 nM.
`Nc1cc(S(=O)(=O)n2c(=O)[nH]c3cc(Cl)ccc3c2=O)ccc1C(=O)[O-].[Na+]` [Compound 18, 4-[(7-chloro-2,4(1H,3H)-quinazolinedion-3-yl)sulfonyl]anthranilic acid monosodium salt] yielded an IC50 in test [1] of 140 nM. Also, in test [2] (small intestines), the “inhibition of chymase activity in the intestines compared with the group administered saline” value is on record as “approximately 80%”. Besides, in test [2] (tongue, back skin, legs), the “inhibition of chymase activity in the tongue, back skin, and legs” value is recorded as “about 50%”. Moreover, in test [3], the “thickness of the subcutaneous fibrous layer, % of that for the group administered saline” value is given as “about 60%”. Also, the “skin chymase activity, % of that of the group administered saline” value in test [4] is listed as 57%.
On to `O=C(O)c1cc(S(=O)(=O)n2c(=O)[nH]c3cc(Cl)ccc3c2=O)ccc1O` [Compound 21, 5-[(7-chloro-2,4(1H,3H)-quinazolinedion-3-yl)sulfonyl]salicylic acid], for which the IC50 in test [1] was found to be 340 nM.
Still for that read-out and setting: the result for `COc1ccc(S(=O)(=O)n2c(=O)[nH]c3cc(Cl)ccc3c2=O)cc1NC(C)=O` [Compound 22] reads 300 nM; that for `COc1ccc(S(=O)(=O)n2c(=O)[nH]c3cc(Cl)ccc3c2=O)cc1NS(C)(=O)=O` [Compound 24, 7-chloro-3-(4-methoxy-3-methylsulfonylaminobenzenesulfonyl)-2,4(1H,3H)-quinazolinedione], 320 nM.
The same measure, in the same setting: then `COc1ccc2c(=O)n(S(=O)(=O)c3ccc(C(=O)O)c(N)c3)c(=O)[nH]c2c1` [Compound 27, 4-[(7-methoxy-2,4(1H,3H)-quinazolinedion-3-yl)sulfonyl]anthranilic acid], with 4000 nM; and `Nc1cc(S(=O)(=O)n2c(=O)[nH]c3ccc(Cl)cc3c2=O)ccc1C(=O)O` [Compound 32, 4-[(6-chloro-2,4(1H,3H)-quinazolinedion-3-yl)sulfonyl]anthranilic acid], with 1500 nM.
In test [1], `CS(=O)(=O)O.Nc1cccc(S(=O)(=O)n2c(=O)[nH]c3cc(Cl)ccc3c2=O)c1` [Compound 34, 3-(3-aminobenzenesulfonyl)-7-chloro-2,4-(1H,3H)quinazolinedion methanesulfonic acid salt] displayed an IC50 of 360 nM. Moreover, in test [5] (10 mg/kg i.p. once a day), the “effect on the increase of the amount of hydroxyproline in the lung” value is “little effect”. The “rate of suppression of the increase of the amount of hydroxyproline in the lung” value in test [5] (50 mg/kg i.p. once a day) is “about 46%”.
For the molecule bleomycin, the “pulmonary chymase activity relative to the group administered saline” value in test [6] is recorded as “about 4.5 times”. Also, the “hydroxyproline content in the lung as compared with the saline group” value amounted to 1.15 fold in test [7] (bleomycin 0.04 mg/mouse intratracheal) and 1.25 fold in test [7] (bleomycin 0.08 mg/mouse intratracheal).
